Test: Part B: safety, treatment-emergent adverse events, DLT and MTD
Assay type: in vivo
From the text: For the purpose of the present invention, the adverse events were graded as per the National Cancer Institute's, Common Terminology Criteria for Adverse Events (NCI-CTCAE) Version 4.03 and Version 5.0 (https://evs.nci.nih.gov/ftp1/CTCAE/About.html). It is a descriptive terminology which can be utilized for Adverse Event (AE) reporting.
AEs were graded as per NCI-CTCAE Version 5.0. In the present study, along with others most common AEs for which patients were monitored were thrombocytopenia, neutropenia and anemia, any AE reported by the patient after the completion of AE collection period and considered related to the study drug was reported.
Dose Limiting Toxicity (DLT) is defined as the occurrence of any of the following unless clearly and incontrovertibly related to the underlying disease. The hematological DLTs were defined as per the Phase of CML: • a) Grade 3 or higher, or other non-hematological toxicity, including nausea, vomiting and diarrhea, and refractory to standard antiemetic therapy except alopecia and nail disorders; • b) Missed ≥25% of doses over 28 days due to toxicity in Cycle 1; and • c) Any grade of toxicity requiring dose reduction or discontinuation of IMP within the 28-days DLT assessment period (Cycle 1).
Safety Parameters: Parts B and C: Descriptive summaries were provided for the safety variables collected. Continuous variables were summarized using mean, standard deviation, minimum, median, and maximum. Categorical variables were summarized using frequency counts and percentages. For time-to-event variables, other percentiles were presented. In addition, summaries of AEs by intensity, seriousness, frequency, and relationship to IMP are presented. Adverse events (AE) s were coded using the Medical Dictionary for Regulatory Activities (MedDRA) and summarized by System Organ Class (SOC) and Preferred Term (PT).
In this study, the dose-escalation cohort started with an accelerated titration study design (ATD) and shifted to a 3±3 design when subjects in the preceding ATD cohort experienced either grade 2 or higher adverse events (AEs) or dose-limiting toxicity (DLT) during Cycle 1 that was not clearly and incontrovertibly related to the underlying disease or concomitant medications. The DLT period consisted of 28 days (Cycle 1). Subjects experiencing DLTs were managed with dose delays and/or discontinuation and continued in the study until disease progression. Decisions to advance to a succeeding dose level occurred after the evaluation of safety and tolerability data for a given dose level.
For the cohorts, where the 3±3 design applies, 3 subjects were enrolled initially. If 2 of these subjects experienced a Grade 2 or more toxicity (that was not clearly and incontrovertibly related to the underlying disease or concomitant medications), subsequent cohorts were escalated according to smaller increments. Further, if there were no DLTs in the first 3 subjects, dose escalation to the next higher dose level was allowed to proceed. If 1 of the 3 subjects experienced a DLT, that dose level was expanded to 6 subjects (3 additional subjects were enrolled). If 2 subjects at a given dose level experienced a DLT, the MTD was considered to have been exceeded. The next lower dose level was expanded to 6 subjects, or if 6 subjects had already been enrolled and no more than 1 of the 6 subjects experienced a DLT, then this lower dose level was considered the MTD. Additional subjects were enrolled in dose escalation cohorts for further assessment of safety and efficacy of the compound of Formula 1 at doses that were tolerated (i.e., doses that have <2 DLTs in 6 enrolled subjects or <1 DLT in 3 enrolled subjects). Thus 204 mg was arrived at as MTD. A subject experiencing a DLT was allowed to continue therapy with a reduced dose. Subjects who experienced a DLT and recovered were treated at the next lower dose level until disease progression or other events requiring further dose reduction existed. […]

Cc1ccc(C(=O)NNC(=O)c2c(C)cccc2Cl)cc1C#Cc1cnc2ccccc2c1 [compound of Formula I, N′-(2-chloro-6-methylbenzoyl)-4-methyl-3-[2-(3-quinolyl)ethynyl]-benzohydrazide]
86.3%: grade 3 or 4 AEs (19 patients treated with ponatinib)
1 No of pts: Diarrhoea, Grade 3/4 (Overall (N = 53)) | Pyrexia, Grade 3/4 (Overall (N = 53)) | Diarrhoea, Grade 3/4 (Prior Ponatinib (N = 22)) | Pyrexia, Grade 3/4 (Prior Ponatinib (N = 22))
11.3%: AEs leading to permanent discontinuation (6 pts)
51 No of pts: All TEAEs, Any grade (Overall (N = 53))
80%: grade 3 or 4 AEs (28 patients, 3 or more TKI treatments)
11 No of pts: Anemia, Any grade (Overall (N = 53)) | Cough, Any grade (Overall (N = 53)) | TEAEs: Dose modifications, Any grade (Overall (N = 53))
12 No of pts: Diarrhoea, Any grade (Overall (N = 53)) | SAEs, Grade 3/4 (Overall (N = 53)) | TEAEs: Dose discontinued and restarted, Grade 3/4 (Overall (N = 53)) | TEAEs: Dose discontinued and restarted, Any grade (Prior Ponatinib (N = 22))
6 No of pts: Decreased appetite, Any grade (Overall (N = 53)) | Nasopharyngitis, Any grade (Overall (N = 53)) | Pruritis, Any grade (Overall (N = 53)) | Rhinitis, Any grade (Overall (N = 53)) | TEAEs Leading to drug withdrawal, Any grade (Overall (N = 53)) | TEAEs: Dose modifications, Grade 3/4 (Overall (N = 53)) | Anemia, Any grade (Prior Ponatinib (N = 22))
2 No of pts: TEAEs Leading to drug withdrawal, Grade 3/4 (Overall (N = 53)) | Amylase increased, Grade 3/4 (Prior Ponatinib (N = 22)) | Death, Any grade (Prior Ponatinib (N = 22)) | Lipase increased, Any grade (Prior Ponatinib (N = 22)) | Lipase increased, Grade 3/4 (Prior Ponatinib (N = 22)) | Myalgia, Any grade (Prior Ponatinib (N = 22)) | Nasopharyngitis, Any grade (Prior Ponatinib (N = 22)) | Neutropenia, Grade 3/4 (Prior Ponatinib (N = 22)) | TEAEs Leading to drug withdrawal, Any grade (Prior Ponatinib (N = 22)) | TEAEs Leading to drug withdrawal, Grade 3/4 (Prior Ponatinib (N = 22))
10 No of pts: Thrombocytopenia, Grade 3/4 (Overall (N = 53)) | SAEs, Any grade (Prior Ponatinib (N = 22))
3 No of pts: Amylase increased, Any grade (Prior Ponatinib (N = 22)) | Back pain, Any grade (Prior Ponatinib (N = 22)) | Constipation, Any grade (Prior Ponatinib (N = 22)) | Decreased appetite, Any grade (Prior Ponatinib (N = 22)) | Neutropenia, Any grade (Prior Ponatinib (N = 22)) | Thrombocytopenia, Grade 3/4 (Prior Ponatinib (N = 22))
14 No of pts: TEAEs Related to comp of Formula I, Grade 3/4 (Overall (N = 53))
4 subjects: discontinued due to disease progression (41 subjects, dose escalation) | discontinued due to AEs (41 subjects, dose escalation (1 each at 48, 126, 174 and 204 mg))
41.5%: thrombocytopenia (any grade)
15 No of pts: TEAEs Related to comp of Formula I, Any grade (Prior Ponatinib (N = 22))
8 No of pts: Constipation, Any grade (Overall (N = 53)) | Headache, Any grade (Overall (N = 53)) | Nausea, Any grade (Overall (N = 53)) | Neutropenia, Any grade (Overall (N = 53)) | Pyrexia, Any grade (Overall (N = 53)) | TEAEs: Dose modifications, Any grade (Prior Ponatinib (N = 22))
4 No of pts: Amylase increased, Grade 3/4 (Overall (N = 53)) | Lipase increased, Grade 3/4 (Overall (N = 53)) | Anemia, Grade 3/4 (Prior Ponatinib (N = 22)) | Fatigue, Any grade (Prior Ponatinib (N = 22)) | Headache, Any grade (Prior Ponatinib (N = 22)) | Pruritis, Any grade (Prior Ponatinib (N = 22)) | Pyrexia, Any grade (Prior Ponatinib (N = 22)) | Rhinitis, Any grade (Prior Ponatinib (N = 22)) | TEAEs: Dose modifications, Grade 3/4 (Prior Ponatinib (N = 22)) | Vomiting, Any grade (Prior Ponatinib (N = 22))
20.8%: Cough (any grade) | anemia (any grade)
20 No of pts: SAEs, Any grade (Overall (N = 53)) | TEAEs: Dose discontinued and restarted, Any grade (Overall (N = 53))
35 No of pts: TEAEs Related to comp of Formula I, Any grade (Overall (N = 53))
19 No of pts: All TEAEs, Grade 3/4 (Prior Ponatinib (N = 22))
1 subject: discontinued from the study due to AE (10 subjects, dose expansion at 174 mg)
7 No of pts: Anemia, Grade 3/4 (Overall (N = 53)) | Back pain, Any grade (Overall (N = 53)) | Fatigue, Any grade (Overall (N = 53)) | Myalgia, Any grade (Overall (N = 53)) | Neutropenia, Grade 3/4 (Overall (N = 53)) | Vomiting, Any grade (Overall (N = 53)) | Diarrhoea, Any grade (Prior Ponatinib (N = 22)) | Nausea, Any grade (Prior Ponatinib (N = 22)) | SAEs, Grade 3/4 (Prior Ponatinib (N = 22)) | TEAEs Related to comp of Formula I, Grade 3/4 (Prior Ponatinib (N = 22)) | TEAEs: Dose discontinued and restarted, Grade 3/4 (Prior Ponatinib (N = 22)) | Thrombocytopenia, Any grade (Prior Ponatinib (N = 22))
22 No of pts: Thrombocytopenia, Any grade (Overall (N = 53)) | All TEAEs, Any grade (Prior Ponatinib (N = 22))
0 No of pts: Back pain, Grade 3/4 (Overall (N = 53)) | Constipation, Grade 3/4 (Overall (N = 53)) | Cough, Grade 3/4 (Overall (N = 53)) | Death, Grade 3/4 (Overall (N = 53)) | Decreased appetite, Grade 3/4 (Overall (N = 53)) | Fatigue, Grade 3/4 (Overall (N = 53)) | Headache, Grade 3/4 (Overall (N = 53)) | Myalgia, Grade 3/4 (Overall (N = 53)) | Nasopharyngitis, Grade 3/4 (Overall (N = 53)) | Nausea, Grade 3/4 (Overall (N = 53)) | Pruritis, Grade 3/4 (Overall (N = 53)) | Rhinitis, Grade 3/4 (Overall (N = 53)) | Vomiting, Grade 3/4 (Overall (N = 53)) | Back pain, Grade 3/4 (Prior Ponatinib (N = 22)) | Constipation, Grade 3/4 (Prior Ponatinib (N = 22)) | Cough, Grade 3/4 (Prior Ponatinib (N = 22)) | Death, Grade 3/4 (Prior Ponatinib (N = 22)) | Decreased appetite, Grade 3/4 (Prior Ponatinib (N = 22)) | Fatigue, Grade 3/4 (Prior Ponatinib (N = 22)) | Headache, Grade 3/4 (Prior Ponatinib (N = 22)) | Myalgia, Grade 3/4 (Prior Ponatinib (N = 22)) | Nasopharyngitis, Grade 3/4 (Prior Ponatinib (N = 22)) | Nausea, Grade 3/4 (Prior Ponatinib (N = 22)) | Pruritis, Grade 3/4 (Prior Ponatinib (N = 22)) | Rhinitis, Grade 3/4 (Prior Ponatinib (N = 22)) | Vomiting, Grade 3/4 (Prior Ponatinib (N = 22))
22%: diarrhea (any grade)
34 No of pts: All TEAEs, Grade 3/4 (Overall (N = 53))
11 subjects: discontinued from the study (41 subjects, dose escalation cohorts)
33.4%: grade 3 or 4 AEs (6 patients, prior 2 TKI treatments)
5 No of pts: Amylase increased, Any grade (Overall (N = 53)) | Lipase increased, Any grade (Overall (N = 53)) | Cough, Any grade (Prior Ponatinib (N = 22))

Source: patent US20260069584A1, “METHODS OF TREATING CHRONIC MYELOID LEUKEMIA USING THE TYROSINE KINASE INHIBITOR VODOBATINIB” (Sun Pharma Advanced Research Company Ltd., priority 2022, published 2026)
